# Source: the NIST ThermoML archive (doi:10.1016/j.fluid.2010.02.038)
# Numbers after ± are expanded uncertainties.
# Experiment: relative permittivity at various frequencies (dimensionless); xn = mol fraction of the nth substance listed
# Settings: 303.15 K, 101 kPa, Liquid, Frequency=1 MHz, Capacitive measurement method at f=1 MHz
SMILES,relative permittivity (x2 = 0),relative permittivity (x2 = 0.068),relative permittivity (x2 = 0.141),relative permittivity (x2 = 0.22),relative permittivity (x2 = 0.305),relative permittivity (x2 = 0.397),relative permittivity (x2 = 0.497),relative permittivity (x2 = 0.606),relative permittivity (x2 = 0.725),relative permittivity (x2 = 0.856)
CN(C)C=O [dimethylformamide] + NCCO,36.55 ± 0.22,,,,,,,,,
NC=O [formamide] + NCCO,106.14 ± 0.64,97.77 ± 1.3,90.12 ± 1.2,81.77 ± 1.1,74.02 ± 0.98,66.34 ± 0.87,59.14 ± 0.77,52.04 ± 0.71,44.61 ± 0.66,36.91 ± 0.53
